Key:
[1] = target: T1, OATPB (Homo sapiens, UniProt O94956); conditions: cited from earlier work
T1 sequence (O94956 1-709): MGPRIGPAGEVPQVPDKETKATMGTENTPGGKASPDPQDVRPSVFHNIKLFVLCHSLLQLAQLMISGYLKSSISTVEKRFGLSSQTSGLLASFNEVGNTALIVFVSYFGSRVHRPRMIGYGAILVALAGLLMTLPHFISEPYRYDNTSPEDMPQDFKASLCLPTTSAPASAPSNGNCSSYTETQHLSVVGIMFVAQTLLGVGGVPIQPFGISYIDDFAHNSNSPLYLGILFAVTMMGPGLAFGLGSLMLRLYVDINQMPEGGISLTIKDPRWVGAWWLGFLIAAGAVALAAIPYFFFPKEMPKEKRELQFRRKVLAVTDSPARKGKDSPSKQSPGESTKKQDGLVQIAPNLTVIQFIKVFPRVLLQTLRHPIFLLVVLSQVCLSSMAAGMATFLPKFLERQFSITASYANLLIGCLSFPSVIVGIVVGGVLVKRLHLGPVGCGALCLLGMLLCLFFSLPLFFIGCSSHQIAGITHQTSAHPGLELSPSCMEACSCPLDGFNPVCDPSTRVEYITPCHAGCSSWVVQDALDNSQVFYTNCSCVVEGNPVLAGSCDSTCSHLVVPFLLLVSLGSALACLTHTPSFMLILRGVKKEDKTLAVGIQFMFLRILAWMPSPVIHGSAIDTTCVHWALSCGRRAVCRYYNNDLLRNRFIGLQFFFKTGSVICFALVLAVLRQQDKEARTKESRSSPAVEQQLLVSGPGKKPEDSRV

[2] = target: T1, OATPB; assay: ^3H-estrone sulfate uptake into oocytes injected with OATPB cRNA; format: cell-based; parameters: expressed in transfected cells; host or cells: Xenopus oocytes injected with OATPB cRNA; conditions: oocytes expressing OATPB versus noninjected controls (FIG. 2)
[3] = target: T2, OATPB transporter (Homo sapiens, UniProt O94956); assay: Direct uptake assay in tet-induced and non-induced OATPB-HEK/TREx cells (LC-MS-MS); format: cell-based; conditions: 125, 250, 500 or 1000 μM, 20 minutes at room temperature, with and without tetracycline (FIG. 7)
T2 construct: expressed in transfected cells
T2 sequence (O94956 1-709): T1 sequence (O94956 1-709)
Source text: To increase the throughput of OATPB compound screening, a mammalian cell assay was developed using an inducible expression system. OATPB was subcloned into a plasmid that allows for inducible expression by tetracycline (TREx plasmid, Invitrogen Inc. Carlsbad Calif.). The OATPB-HEK plasmid was […] transfected into a HEK cell line engineered for tetracycline-inducible expression (HEK-TREx, Invitrogen) and stable clones were isolated by G418 selection and […] (FACS).
In order to measure whether test compounds are actively translocated across the membrane, and to determine the maximal transport rate, a direct uptake method can be used in which transport of a test compound is measured by mass spectroscopy. For direct uptake measurements using mass spectroscopy, OATPB-HEK/TREx cells can be prepared similarly to those used for competition studies (described above). […] The supernatant is analyzed by LC-MS-MS. As a negative control, uptake is measured in cells not treated with tetracycline, or by competition with another substrate such as estrone-3-sulfate or bromosulphophthalein (3 mM).
The uptake of PGFα by OATPB-HEK/TREx cells was measured as described in Example 3. […] The supernatant was analyzed by LC-MS-MS. As a negative control, uptake was measured in cells not treated with tetracycline.

[4] = target: T3, PgP (Homo sapiens, UniProt P08183); assay: Cellular transwell monolayer efflux assay in MDCK cells transfected with TREx-PgP; format: cell-based
T3 construct: expressed in transfected cells; host or cells: MDCK cells
Procedure: A third type of efflux transporter assay is the cellular transwell monolayer efflux assay. […] The cells form a polarized monolayer. The transwell dishes have apical and basolateral chambers that are separated by the filter membrane on which the polarized monolayer is situated. Assays are performed by placing a test compound in either the apical or basolateral chamber, followed by sampling the opposite chamber after a predetermined period of time such as 60-120 minutes and measuring the amount of the test compound. The test compound can be measured by methods such as radiolabel detection or LC-MS-MS analysis. Assays are performed in the presence and absence of an efflux transporter inhibitor or competitor. Efflux transporter inhibitors or competitors increase apical to basolateral transport and decrease basolateral to apical transport of compounds that are efflux transporter substrates. Apparent permeability (Papp) of test compounds is measured. […] Test compounds that generate ratios between 1.5 and 2.0 require additional testing to determine if they are efflux transporter substrates.
MDCK cells transfected with the tetracycline-inducible TREx-PgP expression vector were seeded on polycarbonate filter membranes in transwell dishes and grown for 3-5 days, yielding a polarized monolayer with tight junctions between cells. […] The left set of bars depicts apical to basolateral transport, while the right set of bars depicts basolateral to apical transport.

[5] = 2.5 nM ^3H-vinblastine, in the presence of 250 μM verapamil versus absence (FIG. 6)

T3 sequence (P08183 whole entry): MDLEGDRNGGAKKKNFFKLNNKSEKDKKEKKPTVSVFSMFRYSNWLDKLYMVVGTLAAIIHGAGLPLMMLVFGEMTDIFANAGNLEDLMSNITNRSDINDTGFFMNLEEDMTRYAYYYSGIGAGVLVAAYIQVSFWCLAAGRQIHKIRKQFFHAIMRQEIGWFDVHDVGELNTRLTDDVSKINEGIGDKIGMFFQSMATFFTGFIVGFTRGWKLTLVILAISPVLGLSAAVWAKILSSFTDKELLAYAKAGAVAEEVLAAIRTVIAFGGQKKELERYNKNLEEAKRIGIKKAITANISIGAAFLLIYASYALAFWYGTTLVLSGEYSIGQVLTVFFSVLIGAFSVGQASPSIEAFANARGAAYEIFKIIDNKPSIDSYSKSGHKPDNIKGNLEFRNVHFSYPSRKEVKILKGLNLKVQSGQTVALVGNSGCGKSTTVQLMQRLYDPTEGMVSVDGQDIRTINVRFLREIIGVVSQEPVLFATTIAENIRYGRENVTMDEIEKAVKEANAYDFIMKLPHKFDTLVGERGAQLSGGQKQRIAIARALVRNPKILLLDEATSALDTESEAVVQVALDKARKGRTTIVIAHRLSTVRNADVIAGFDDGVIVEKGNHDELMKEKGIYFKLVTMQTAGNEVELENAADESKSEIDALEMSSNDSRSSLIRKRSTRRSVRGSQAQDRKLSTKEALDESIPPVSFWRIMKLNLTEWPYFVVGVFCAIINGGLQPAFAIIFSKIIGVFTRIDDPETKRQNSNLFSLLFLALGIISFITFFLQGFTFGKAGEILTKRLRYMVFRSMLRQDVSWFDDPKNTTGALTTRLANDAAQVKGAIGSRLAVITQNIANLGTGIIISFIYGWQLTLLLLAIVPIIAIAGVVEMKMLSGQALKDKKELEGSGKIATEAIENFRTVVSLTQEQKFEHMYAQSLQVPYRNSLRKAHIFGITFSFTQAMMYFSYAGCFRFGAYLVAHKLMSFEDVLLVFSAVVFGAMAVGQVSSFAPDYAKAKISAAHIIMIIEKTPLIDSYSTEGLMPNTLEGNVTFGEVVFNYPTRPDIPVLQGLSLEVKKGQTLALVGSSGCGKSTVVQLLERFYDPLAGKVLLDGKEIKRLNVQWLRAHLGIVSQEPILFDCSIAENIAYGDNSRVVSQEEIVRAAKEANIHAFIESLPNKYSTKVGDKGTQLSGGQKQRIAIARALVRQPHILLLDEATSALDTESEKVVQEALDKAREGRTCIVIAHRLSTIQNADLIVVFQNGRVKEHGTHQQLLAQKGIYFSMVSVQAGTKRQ

Q: Which “Reported Affinity for OATPB” value [1] does the source give for `O=C1OC(c2ccc(O)c(S(=O)(=O)O)c2)(c2ccc(O)c(S(=O)(=O)O)c2)c2c(Br)c(Br)c(Br)c(Br)c21` [Bromosulfophthalein] here?
A: Its value is 0.04 mM.

Q: Which results are given for `C[C@]12CC[C@@H]3c4ccc(OS(=O)(=O)O)cc4CC[C@H]3[C@@H]1CCC2=O` [Estrone-3-sulfate]?
A: Reported Affinity for OATPB [1]: 0.1 mM; ^3H-estrone-3-sulfate uptake [2]: higher levels of ^3H-estrone-3-sulfate uptake than noninjected controls

Q: With `CCCCC[C@H](O)/C=C/[C@@H]1[C@@H](C/C=C\CCCC(=O)O)[C@@H](O)C[C@H]1O` [PGFα] as the compound, how does the OATPB substrate status [3] read?
A: The OATPB substrate status was “is a substrate for the OATPB transporter”.

Q: With `CC[C@]1(O)C[C@@H]2CN(CCc3c([nH]c4ccccc34)[C@@](C(=O)OC)(c3cc4c(cc3OC)N(C)[C@H]3[C@@](O)(C(=O)OC)[C@H](OC(C)=O)[C@]5(CC)C=CCN6CC[C@]43[C@@H]65)C2)C1` [^3H-vinblastine] as the compound, how does the “Apical to basolateral transport” value [4, 5] read?
A: The value was “strongly increased”.

Q: And the “Basolateral to apical transport” value [4, 5]?
A: Its value is “strongly decreased”.

Q: What about the PgP substrate status ([4]; conclusion from the transwell assay with and without verapamil) of the same compound?
A: The PgP substrate status was “is a substrate of PgP”.
